In patent US20240317777A1, “NOVEL MACROCYCLIC AMINOPYRAZOLE COMPOUNDS AS CDK2 INHIBITORS” (Accutar Biotechnology Inc., priority 2023, published 2024):
Read-outs that look alike come from different tables or passages of the source.

What was measured:
CDK1-CYCLIN B = CDK1-CYCLIN B (Homo sapiens, UniProt P06493); assay: CDK protein kinase inhibition by ADP-Glo assay, CDK1-CYCLIN B; format: biochemical; settings: for IC50: read-out: CDK1-CYCLINB, IC50
Outline: (§1)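 Kinase/cyclin + peptide substrate + cpd + ATP (1000 μM)/MgCl2 (5 mM), HEPES pH 7.5, 22° C; quench, ADP-Glo reagent 45 min RT, detection reagent 10 min, luminescence.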

CDK2-CYCLIN E1 = CDK2-CYCLIN E1 (Homo sapiens, UniProt P24941); assay: CDK protein kinase inhibition by ADP-Glo assay, CDK2-CYCLIN E1; format: biochemical; settings: read-out: CDK2-CYCLINE, IC50
Outline: as §1

CDK4-CYCLIN D1 = CDK4-CYCLIN D1 (Homo sapiens, UniProt P11802); assay: CDK protein kinase inhibition by ADP-Glo assay, CDK4-CYCLIN D1; format: biochemical; settings: for IC50: read-out: CDK4-CYCLIND1, IC50
Chain of CDK4-CYCLIN D1 (P11802 whole entry): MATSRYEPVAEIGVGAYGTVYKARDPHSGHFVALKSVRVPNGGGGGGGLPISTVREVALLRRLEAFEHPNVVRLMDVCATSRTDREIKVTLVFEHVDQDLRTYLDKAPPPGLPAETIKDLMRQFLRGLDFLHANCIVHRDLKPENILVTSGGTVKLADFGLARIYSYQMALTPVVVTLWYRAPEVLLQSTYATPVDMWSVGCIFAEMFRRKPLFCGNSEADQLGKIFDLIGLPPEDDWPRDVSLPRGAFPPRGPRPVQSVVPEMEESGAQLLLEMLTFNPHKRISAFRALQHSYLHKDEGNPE
Chain of CDK4-CYCLIN D1 (P24385 whole entry partner): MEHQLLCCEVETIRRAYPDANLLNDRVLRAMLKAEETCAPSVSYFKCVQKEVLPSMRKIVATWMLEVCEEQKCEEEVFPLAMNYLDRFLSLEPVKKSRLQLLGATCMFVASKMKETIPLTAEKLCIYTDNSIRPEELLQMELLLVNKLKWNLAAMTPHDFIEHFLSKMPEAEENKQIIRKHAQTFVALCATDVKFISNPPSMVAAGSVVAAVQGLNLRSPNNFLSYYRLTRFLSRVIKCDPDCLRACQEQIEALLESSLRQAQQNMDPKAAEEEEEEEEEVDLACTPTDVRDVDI
Outline: as §1

CDK6-CYCLIN D3 = CDK6-CYCLIN D3 (Homo sapiens, UniProt Q00534); assay: CDK protein kinase inhibition by ADP-Glo assay, CDK6-CYCLIN D3; format: biochemical; settings: for IC50: read-out: CDK6-CYCLIND3, IC50
Chain of CDK6-CYCLIN D3 (Q00534 whole entry): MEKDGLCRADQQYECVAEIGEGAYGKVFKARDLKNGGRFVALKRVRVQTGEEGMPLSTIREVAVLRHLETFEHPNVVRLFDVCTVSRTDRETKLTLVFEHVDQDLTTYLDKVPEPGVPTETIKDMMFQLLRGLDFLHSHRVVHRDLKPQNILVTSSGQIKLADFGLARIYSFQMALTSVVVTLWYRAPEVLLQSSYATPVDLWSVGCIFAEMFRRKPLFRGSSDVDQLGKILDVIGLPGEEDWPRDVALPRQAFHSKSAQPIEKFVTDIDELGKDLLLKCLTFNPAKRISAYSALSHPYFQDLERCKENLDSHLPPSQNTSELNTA
Chain of CDK6-CYCLIN D3 (P30281 whole entry partner): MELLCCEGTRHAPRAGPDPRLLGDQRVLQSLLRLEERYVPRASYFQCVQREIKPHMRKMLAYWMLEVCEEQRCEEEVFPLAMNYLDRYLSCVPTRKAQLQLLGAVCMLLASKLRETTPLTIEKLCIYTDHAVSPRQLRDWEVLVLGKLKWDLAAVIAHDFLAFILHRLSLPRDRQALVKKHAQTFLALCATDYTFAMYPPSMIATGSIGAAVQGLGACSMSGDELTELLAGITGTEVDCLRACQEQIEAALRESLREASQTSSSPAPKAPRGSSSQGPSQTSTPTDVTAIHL
Outline: as §1

CDK9-CYCLIN T1 = CDK9-CYCLIN T1 (Homo sapiens, UniProt P50750); assay: CDK protein kinase inhibition by ADP-Glo assay, CDK9-CYCLIN T1; format: biochemical; settings: for IC50: read-out: CDK9-CYCLINT1, IC50
Chain of CDK9-CYCLIN T1 (P50750 whole entry): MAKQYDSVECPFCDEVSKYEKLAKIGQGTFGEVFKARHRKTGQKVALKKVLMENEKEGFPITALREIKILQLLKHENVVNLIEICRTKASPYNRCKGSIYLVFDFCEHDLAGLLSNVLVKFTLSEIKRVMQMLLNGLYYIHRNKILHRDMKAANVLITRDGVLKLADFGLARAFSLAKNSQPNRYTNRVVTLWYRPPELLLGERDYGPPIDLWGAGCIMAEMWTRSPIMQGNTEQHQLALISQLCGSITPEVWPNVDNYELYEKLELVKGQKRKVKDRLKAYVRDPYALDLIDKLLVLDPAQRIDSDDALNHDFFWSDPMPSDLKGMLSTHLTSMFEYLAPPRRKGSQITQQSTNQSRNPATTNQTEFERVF
Chain of CDK9-CYCLIN T1 (O60563 whole entry partner): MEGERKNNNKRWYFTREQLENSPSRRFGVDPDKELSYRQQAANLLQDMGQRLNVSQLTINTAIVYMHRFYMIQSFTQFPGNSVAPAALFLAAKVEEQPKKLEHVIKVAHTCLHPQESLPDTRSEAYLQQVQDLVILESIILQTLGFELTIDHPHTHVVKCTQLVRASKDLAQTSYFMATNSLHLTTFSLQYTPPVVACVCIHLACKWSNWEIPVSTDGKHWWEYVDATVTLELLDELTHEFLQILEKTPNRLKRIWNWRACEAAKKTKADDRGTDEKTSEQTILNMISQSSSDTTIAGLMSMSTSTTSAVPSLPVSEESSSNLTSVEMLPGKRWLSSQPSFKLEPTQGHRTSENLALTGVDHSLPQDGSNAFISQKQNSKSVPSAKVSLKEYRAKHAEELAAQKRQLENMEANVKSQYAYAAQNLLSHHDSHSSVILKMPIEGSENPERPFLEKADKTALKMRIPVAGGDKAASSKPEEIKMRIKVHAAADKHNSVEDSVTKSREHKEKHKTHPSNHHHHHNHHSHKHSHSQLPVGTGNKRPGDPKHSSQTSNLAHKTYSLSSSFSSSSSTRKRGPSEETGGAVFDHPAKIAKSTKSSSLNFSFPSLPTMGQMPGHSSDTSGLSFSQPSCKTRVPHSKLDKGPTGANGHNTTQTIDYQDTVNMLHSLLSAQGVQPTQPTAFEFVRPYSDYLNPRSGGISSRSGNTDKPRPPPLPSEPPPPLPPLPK
Outline: as §1

[1] = test system: Phospho-Rb (Ser807/811) in OVCAR3 cells; assay: Phospho-Rb expression inhibition in OVCAR3 cells quantified by In Cell Western; format: cell-based; settings: Homo sapiens, OVCAR-3, 24 hours, read-out: OVCAR-3 pRb IC50
Outline: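 In-cell western: after 24 h compound exposure at 37° C, fixed OVCAR3 cells co-stained for pRb Ser807/811 (800 nm channel) and total Rb (680 nm channel), imaged by LI-COR Odyssey.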

[2] = test system: CCNE1-amplified OVCAR3 cells; assay: Cell growth inhibition of CCNE1-amplified OVCAR3 cells (CellTiter-Glo); format: cell-based; settings: Homo sapiens, OVCAR-3, 144 h, 6 days
Outline: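 Growth read-out was CellTiter-Glo luminescence, taken after 10 min at room temperature at the end of a 6-day compound exposure at 37 °C. Compounds were diluted from DMSO stocks across various concentrations.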

CCNE1-normal SKOV3 cells = assay: Cell growth inhibition of CCNE1-normal SKOV3 cells (CellTiter-Glo); format: cell-based; settings: Homo sapiens, SK-OV-3, 144 h, 6 days
Outline: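 Growth was measured by CellTiter-Glo luminescence after 6 days' compound exposure at 37 °C. Cells were plated one day before dosing at 1000 per well in medium with 10% FBS, and compounds were diluted from DMSO stocks.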

[3] = Table 35, recombinant CDK kinase

Chain of CDK1-CYCLIN B (P06493 whole entry): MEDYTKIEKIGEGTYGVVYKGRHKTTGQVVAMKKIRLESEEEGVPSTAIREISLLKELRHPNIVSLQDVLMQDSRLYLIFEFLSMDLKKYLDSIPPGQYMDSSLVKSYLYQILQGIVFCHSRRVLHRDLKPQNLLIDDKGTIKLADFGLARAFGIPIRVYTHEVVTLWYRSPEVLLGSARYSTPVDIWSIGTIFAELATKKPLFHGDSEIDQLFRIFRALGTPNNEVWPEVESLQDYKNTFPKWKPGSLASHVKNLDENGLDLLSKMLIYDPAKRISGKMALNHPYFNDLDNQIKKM
Chain of CDK1-CYCLIN B (P14635 whole entry partner): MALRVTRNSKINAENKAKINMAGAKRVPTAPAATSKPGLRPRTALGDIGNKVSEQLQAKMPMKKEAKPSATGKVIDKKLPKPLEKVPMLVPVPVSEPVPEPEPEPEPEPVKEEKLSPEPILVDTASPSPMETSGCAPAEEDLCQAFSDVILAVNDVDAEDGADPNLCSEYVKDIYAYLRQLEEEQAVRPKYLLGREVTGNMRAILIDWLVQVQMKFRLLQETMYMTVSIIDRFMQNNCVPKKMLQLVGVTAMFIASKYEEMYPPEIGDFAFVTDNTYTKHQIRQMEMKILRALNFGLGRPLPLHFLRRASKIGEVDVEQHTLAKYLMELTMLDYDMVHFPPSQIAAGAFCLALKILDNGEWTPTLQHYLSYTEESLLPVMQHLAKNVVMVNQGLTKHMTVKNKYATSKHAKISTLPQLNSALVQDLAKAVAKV

| SMILES | IC50 [1] | IC50 [2] | IC50 (CCNE1-normal SKOV3 cells) | IC50 (CDK1-CYCLIN B; ADP-Glo, 1000 μM ATP, Table 17) | CDK2 Fold selectivity, CDK1 (CDK1-CYCLIN B; CDK2 versus CDK1, Table 18) | IC50 (CDK2-CYCLIN E1; ADP-Glo, 1000 μM ATP, Table 17) | IC50 (CDK4-CYCLIN D1; ADP-Glo, 1000 μM ATP, Table 17) | CDK2 Fold selectivity, CDK4 (CDK4-CYCLIN D1; CDK2 versus CDK4, Table 18) | IC50 (CDK6-CYCLIN D3; ADP-Glo, 1000 μM ATP, Table 17) | CDK2 Fold selectivity, CDK6 (CDK6-CYCLIN D3; CDK2 versus CDK6, Table 18) | IC50 (CDK9-CYCLIN T1; ADP-Glo, 1000 μM ATP, Table 17) | CDK2 Fold selectivity, CDK9 (CDK9-CYCLIN T1; CDK2 versus CDK9, Table 18) | also measured |
| --- | --- | --- | --- | --- | --- | --- | --- | --- | --- | --- | --- | --- | --- |
| O=C1NC23CC(CCCc4cc(ccn4)Nc4cc(n[nH]4)[C@H]4CC[C@H](C4)O1)(C2)C3 [Compound 96, (1^1S,1^3R,Z)-2^1H-11-oxa-3,9-diaza-4(4,2)-pyridina-2(3,5)-pyrazola-8(1,3)-bicyclo[1.1.1]pentana-1(1,3)-cyclopentanacycloundecaphan-10-one] | ≤ 2 nM | 2 to 10 nM | 50 to 250 nM | – | – | – | – | – | – | – | – | – | IC50 (CDK1-CYCLIN B; ADP-Glo, 1000 μM ATP, Table 13): ≤ 10 nM; CDK2 Fold selectivity, CDK1 (CDK1-CYCLIN B; CDK2 versus CDK1, Table 14): E (E, <20); IC50 (CDK2-CYCLIN E1; ADP-Glo, 1000 μM ATP, Table 13): ≤ 10 nM; IC50 (CDK4-CYCLIN D1; ADP-Glo, 1000 μM ATP, Table 13): 50 to 100 nM; CDK2 Fold selectivity, CDK4 (CDK4-CYCLIN D1; CDK2 versus CDK4, Table 14): D (D, >20 and ≤50); IC50 (CDK6-CYCLIN D3; ADP-Glo, 1000 μM ATP, Table 13): 10 to 50 nM; CDK2 Fold selectivity, CDK6 (CDK6-CYCLIN D3; CDK2 versus CDK6, Table 14): E (E, <20); IC50 (CDK9-CYCLIN T1; ADP-Glo, 1000 μM ATP, Table 13): ≤ 10 nM; CDK2 Fold selectivity, CDK9 (CDK9-CYCLIN T1; CDK2 versus CDK9, Table 14): E (E, <20) |
| C[C@@H]1CC23CC(C2)(C3)NC(=O)O[C@@H]2CC[C@@H](C2)c2cc([nH]n2)Nc2ccnc(c2)O1 [Compound 100, (1^1S,1^3R,6R,Z)-6-methyl-2^1H-5,11-dioxa-3,9-diaza-4(4,2)-pyridina-2(3,5)-pyrazola-8(1,3)-bicyclo[1.1.1]pentana-1(1,3)-cyclopentanacycloundecaphan-10-one] | 2 to 10 nM | 10 to 50 nM | 50 to 250 nM | 10 to 50 nM | E (E, <20) | ≤ 10 nM | 100 to 500 nM | C (C, >50 and ≤100) | 100 to 500 nM | C (C, >50 and ≤100) | 10 to 50 nM | D (D, >20 and ≤50) | – |
| C[C@H]1CC23CC(C2)(C3)NC(=O)O[C@@H]2CC[C@@H](C2)c2cc([nH]n2)Nc2ccnc(c2)O1 [Compound 102, (1^1S,1^3R,6S,Z)-6-methyl-2^1H-5,11-dioxa-3,9-diaza-4(4,2)-pyridina-2(3,5)-pyrazola-8(1,3)-bicyclo[1.1.1]pentana-1(1,3)-cyclopentanacycloundecaphan-10-one] | ≤ 2 nM | 2 to 10 nM | 50 to 250 nM | ≤ 10 nM | E (E, <20) | ≤ 10 nM | 100 to 500 nM | C (C, >50 and ≤100) | 100 to 500 nM | C (C, >50 and ≤100) | 10 to 50 nM | E (E, <20) | – |
| O=C1NCCCCOc2cccc(c2)Nc2cc([nH]n2)[C@H]2CC[C@H](C2)O1 [Compound 105, (1^1S,1^3R,Z)-2^1H-5,12-dioxa-3,10-diaza-2(5,3)-pyrazola-4(1,3)-benzena-1(1,3)-cyclopentanacyclododecaphan-11-one] | 10 to 50 nM | 50 to 250 nM | > 1250 nM | – | – | – | – | – | – | – | – | – | IC50 (CDK1-CYCLIN B; ADP-Glo, 1000 μM ATP, Table 7): 100 to 500 nM; CDK2 fold selectivity over CDK1 (CDK1-CYCLIN B; CDK2 versus CDK1, Table 8): C (C, >50 and ≤100); IC50 (CDK2-CYCLIN E1; ADP-Glo, 1000 μM ATP, Table 7): ≤ 10 nM; IC50 (CDK4-CYCLIN D1; ADP-Glo, 1000 μM ATP, Table 7): 100 to 500 nM; CDK2 Fold Sensitivity, CDK4 (CDK4-CYCLIN D1; CDK2 versus CDK4, Table 8): D (D, >20 and ≤50); IC50 (CDK6-CYCLIN D3; ADP-Glo, 1000 μM ATP, Table 7): 100 to 500 nM; CDK2 Fold Sensitivity, CDK6 (CDK6-CYCLIN D3; CDK2 versus CDK6, Table 8): C (C, >50 and ≤100); IC50 (CDK9-CYCLIN T1; ADP-Glo, 1000 μM ATP, Table 7): > 500 nM; CDK2 Fold Sensitivity, CDK9 (CDK9-CYCLIN T1; CDK2 versus CDK9, Table 8): B (B, >100 and ≤500) |
| O=C1NC23CC(C/C=C/c4cncc(c4)Nc4cc(n[nH]4)[C@H]4CC[C@H](C4)O1)(C2)C3 [Compound 106, (1^1S,1^3R,2^4Z,5E)-2^1H-11-oxa-3,9-diaza-4(3,5)-pyridina-2(3,5)-pyrazola-8(1,3)-bicyclo[1.1.1]pentana-1(1,3)-cyclopentanacycloundecaphan-5-en-10-one] | ≤ 2 nM | ≤ 2 nM | 10 to 50 nM | – | – | – | – | – | – | – | – | – | IC50 (CDK1-CYCLIN B; ADP-Glo, 1000 μM ATP, Table 15): ≤ 10 nM; CDK2 Fold selectivity, CDK1 (CDK1-CYCLIN B; CDK2 versus CDK1, Table 16): E (E, <20); IC50 (CDK2-CYCLIN E1; ADP-Glo, 1000 μM ATP, Table 15): ≤ 10 nM; IC50 (CDK4-CYCLIN D1; ADP-Glo, 1000 μM ATP, Table 15): 10 to 50 nM; CDK2 Fold selectivity, CDK4 (CDK4-CYCLIN D1; CDK2 versus CDK4, Table 16): E (E, <20); IC50 (CDK6-CYCLIN D3; ADP-Glo, 1000 μM ATP, Table 15): 10 to 50 nM; CDK2 Fold selectivity, CDK6 (CDK6-CYCLIN D3; CDK2 versus CDK6, Table 16): E (E, <20); IC50 (CDK9-CYCLIN T1; ADP-Glo, 1000 μM ATP, Table 15): ≤ 10 nM; CDK2 Fold selectivity, CDK9 (CDK9-CYCLIN T1; CDK2 versus CDK9, Table 16): E (E, <20) |
| O=C1NC23CC(C/C=C/c4cc(ccn4)Nc4cc(n[nH]4)[C@H]4CC[C@H](C4)O1)(C2)C3 [Compound 107, (11S,13R,24Z,5E)-21H-11-oxa-3,9-diaza-4(4,2)-pyridina-2(3,5)-pyrazola-8(1,3)-bicyclo[1.1.1]pentana-1(1,3)-cyclopentanacycloundecaphan-5-en-10-one] | ≤ 2 nM | ≤ 2 nM | 10 to 50 nM | ≤ 10 nM | E (E, <20) | ≤ 10 nM | 10 to 50 nM | E (E, <20) | 10 to 50 nM | E (E, <20) | ≤ 10 nM | E (E, <20) | – |
| O=C1N[C@H]2C[C@H](COc3cc(ccn3)Nc3cc(n[nH]3)[C@H]3CC[C@H](C3)O1)C2 [Compound 108, (1^1S,1^3R,7^1R,7^3S,Z)-2^1H-5,10-dioxa-3,8-diaza-4(4,2)-pyridina-2(3,5)-pyrazola-1(1,3)-cyclopentana-7(1,3)-cyclobutanacyclodecaphan-9-one] | 2 to 10 nM | 2 to 10 nM | 250 to 1250 nM | – | – | – | – | – | – | – | – | – | IC50 (CDK1-CYCLIN B; ADP-Glo, 1000 μM ATP, Table 11): 10 to 50 nM; CDK2 Fold selectivity, CDK1 (CDK1-CYCLIN B; CDK2 versus CDK1, Table 12): B (B, >100 and ≤500); IC50 (CDK1-CYCLIN B; [3]): 10 to 50 nM; CDK2 Fold selectivity against CDK1 (CDK1-CYCLIN B; Table 36, fold selectivity for CDK2 over CDK1, recombinant CDK kinases): E (E, <20); IC50 (CDK2-CYCLIN E1; ADP-Glo, 1000 μM ATP, Table 11): ≤ 10 nM; IC50 (CDK2-CYCLIN E1; [3]): ≤ 10 nM; IC50 (CDK4-CYCLIN D1; ADP-Glo, 1000 μM ATP, Table 11): 100 to 500 nM; CDK2 Fold selectivity, CDK4 (CDK4-CYCLIN D1; CDK2 versus CDK4, Table 12): B (B, >100 and ≤500); IC50 (CDK4-CYCLIN D1; [3]): 10 to 50 nM; CDK2 Fold selectivity against CDK4 (CDK4-CYCLIN D1; Table 36, fold selectivity for CDK2 over CDK4, recombinant CDK kinases): E (E, <20); IC50 (CDK6-CYCLIN D3; ADP-Glo, 1000 μM ATP, Table 11): 100 to 500 nM; CDK2 Fold selectivity, CDK6 (CDK6-CYCLIN D3; CDK2 versus CDK6, Table 12): A (A, ≥500); IC50 (CDK6-CYCLIN D3; [3]): 50 to 100 nM; CDK2 Fold selectivity against CDK6 (CDK6-CYCLIN D3; Table 36, fold selectivity for CDK2 over CDK6, recombinant CDK kinases): D (D, >20 and ≤50); IC50 (CDK9-CYCLIN T1; ADP-Glo, 1000 μM ATP, Table 11): 100 to 500 nM; CDK2 Fold selectivity, CDK9 (CDK9-CYCLIN T1; CDK2 versus CDK9, Table 12): A (A, ≥500); IC50 (CDK9-CYCLIN T1; [3]): 50 to 100 nM; CDK2 Fold selectivity against CDK9 (CDK9-CYCLIN T1; Table 36, fold selectivity for CDK2 over CDK9, recombinant CDK kinases): D (D, >20 and ≤50) |
